Experimental data as given in patent publication US20250346585A1 (Alexion Pharmaceuticals, Inc., priority 2022, published 2025).

target: Human complement C1s enzyme (Homo sapiens (Human), UniProt P09871); assay: Human C1s enzyme assay; format: biochemical; conditions: Human C1s enzyme assay of Example 3; read-out: IC50 (Stars)
In short: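 Purified serum-derived human C1s (1.16 nM final) preincubated 5 min at room temperature with compound in 50 mM Tris, 1 M NaCl, pH 7.5. Z-L-Lys-SBzl thioester substrate and DTNB added (100 μM each, final); A405 read every 30 s for 30 min. IC50 from nonlinear regression of reaction rates against compound concentration.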

Chain of Human complement C1s enzyme (P09871 438-688 limits assumed): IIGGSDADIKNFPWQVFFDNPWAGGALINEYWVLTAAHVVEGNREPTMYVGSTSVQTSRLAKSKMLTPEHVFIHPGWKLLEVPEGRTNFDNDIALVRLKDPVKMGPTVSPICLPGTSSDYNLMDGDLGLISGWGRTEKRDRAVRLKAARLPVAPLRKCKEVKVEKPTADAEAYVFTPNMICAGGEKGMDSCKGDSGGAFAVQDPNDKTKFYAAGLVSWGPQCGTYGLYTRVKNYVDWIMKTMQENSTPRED
Chain of Human complement C1s enzyme (P09871 16-437 partner limits assumed): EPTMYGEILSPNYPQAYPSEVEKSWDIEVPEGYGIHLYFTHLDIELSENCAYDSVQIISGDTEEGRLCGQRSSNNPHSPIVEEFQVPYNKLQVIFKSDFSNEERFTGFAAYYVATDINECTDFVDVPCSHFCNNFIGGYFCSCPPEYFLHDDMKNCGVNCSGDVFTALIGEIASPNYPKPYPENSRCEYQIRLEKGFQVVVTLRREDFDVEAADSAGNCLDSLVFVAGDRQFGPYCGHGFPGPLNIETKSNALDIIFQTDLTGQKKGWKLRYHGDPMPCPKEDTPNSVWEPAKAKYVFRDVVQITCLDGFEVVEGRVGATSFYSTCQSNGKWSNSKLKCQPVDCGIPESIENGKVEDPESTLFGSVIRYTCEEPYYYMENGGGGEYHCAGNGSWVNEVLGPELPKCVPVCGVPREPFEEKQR

Row | Compound | IC50 [nM]
1 | C[C@@H](NC(=O)[C@@H]1C[C@](F)(CF)CN1C(=O)CNC(=O)c1ccc2c(c1)-c1ccccc1C2)c1cc(C(=N)N)cs1 [Compound 12, (2S,4R)—N-[(1R)-1-(4-carbamimidoylthiophen-2-yl)ethyl]-1-[2-(9H-fluoren-3-ylformamido)acetyl]-4-fluoro-4-(fluoromethyl)pyrrolidine-2-carboxamide] | < 100
2 | COC[C@@]1(F)C[C@@H](C(=O)N[C@H](C)c2cc(C(=N)N)cs2)N(C(=O)CNC(=O)c2ccc(Oc3ccc(F)cc3)cc2)C1 [Compound 17, (2S,4R)—N—((R)-1-(4-carbamimidoylthiophen-2-yl)ethyl)-4-fluoro-1-((4-(4-fluorophenoxy)benzoyl)glycyl)-4-(methoxymethyl)pyrrolidine-2-carboxamide] | < 100
3 | COC[C@@]12C[C@@H]1N(C(=O)CNC(=O)c1ccc(Oc3ccc(F)cc3)cc1)[C@H](C(=O)N[C@H](C)c1cc(C(=N)N)cs1)C2 [Compound 44, (1S,3S,5R)—N—((R)-1-(4-carbamimidoylthiophen-2-yl)ethyl)-2-((4-(4-fluorophenoxy)benzoyl)glycyl)-5-(methoxymethyl)-2-azabicyclo[3.1.0]hexane-3-carboxamide] | < 100
4 | N=C(N)c1csc(CNC(=O)[C@@H]2CC3(CN2C(=O)CNC(=O)c2ccc(-c4cnc5[nH]ccc5c4)cc2)OCCO3)c1 [Compound 195, (S)-7-((4-(1H-pyrrolo[2,3-b]pyridin-5-yl)benzoyl)glycyl)-N-((4-carbamimidoylthiophen-2-yl)methyl)-1,4-dioxa-7-azaspiro[4.4]nonane-8-carboxamide] | < 100
5 | N=C(N)c1cc(CNC(=O)[C@@H]2CC3(CN2C(=O)CNC(=O)c2ccc(-c4ccc(F)cc4F)cc2)OCCO3)cs1 [Compound 155, (S)-N-((5-carbamimidoylthiophen-3-yl)methyl)-7-((2′,4′-difluoro-[1,1′-biphenyl]-4-carbonyl)glycyl)-1,4-dioxa-7-azaspiro[4.4]nonane-8-carboxamide] | < 100
6 | COC[C@@]1(F)C[C@@H](C(=O)N[C@H](C)c2cc(C(=N)N)cs2)N(C(=O)CNC(=O)c2ccc(Oc3ccc(C)cc3)cc2)C1 [Compound 19, (2S,4R)—N—((R)-1-(4-carbamimidoylthiophen-2-yl)ethyl)-4-fluoro-4-(methoxymethyl)-1-((4-(p-tolyloxy)benzoyl)glycyl)pyrrolidine-2-carboxamide] | < 100
7 | C[C@@H](NC(=O)[C@@H]1CC2(CN1C(=O)CNC(=O)c1cc3ccc1CCc1ccc(cc1)CC3)OCCO2)c1cc(C(=N)N)cs1 [Compound 66, (S)-7-((1,4(1,4)-dibenzenacyclohexaphane-1^2-carbonyl)glycyl)-N—((R)-1-(4-carbamimidoylthiophen-2-yl)ethyl)-1,4-dioxa-7-azaspiro[4.4]nonane-8-carboxamide] | < 100
8 | C[C@@H](NC(=O)[C@@H]1CC2(CN1C(=O)CNC(=O)c1ccc3c(c1)-c1ccccc1C3(F)F)OCCO2)c1cc(C(=N)N)cs1 [Compound 21, (S)—N—((R)-1-(4-carbamimidoylthiophen-2-yl)ethyl)-7-((9,9-difluoro-9H-fluorene-3-carbonyl)glycyl)-1,4-dioxa-7-azaspiro[4.4]nonane-8-carboxamide] | < 100
9 | C[C@@H](NC(=O)[C@@H]1C[C@@H](OC(F)F)CN1C(=O)CNC(=O)c1ccc2c(c1)-c1ccccc1C2(F)F)c1cc(C(=N)N)cs1 [Compound 9, (2S,4R)—N—((R)-1-(4-carbamimidoylthiophen-2-yl)ethyl)-1-((9,9-difluoro-9H-fluorene-3-carbonyl)glycyl)-4-(difluoromethoxy)pyrrolidine-2-carboxamide] | < 100
10 | COC[C@@]12C[C@@H]1N(C(=O)CNC(=O)c1ccc(Oc3ccc(F)cc3)cc1)[C@H](C(=O)N[C@H](C)c1ccc(C(=N)N)s1)C2 [Compound 38, (1S,3S,5R)—N—((R)-1-(5-carbamimidoylthiophen-2-yl)ethyl)-2-((4-(4-fluorophenoxy)benzoyl)glycyl)-5-(methoxymethyl)-2-azabicyclo[3.1.0]-hexane-3-carboxamide] | < 100

same assay, conditions: Human complement C1s enzyme 1.16 nM, substrate Z-L-Lys-SBzl 100 μM, assay of Example 3; read-out: IC50 (Stars)

Row | Compound | IC50 [nM]
11 | CCCCCCOC(=O)/N=C(/N)c1csc([C@@H](C)NC(=O)[C@@H]2C[C@@H](OC(F)F)CN2C(=O)CNC(=O)c2ccc3c(c2)-c2ccccc2C3(F)F)c1 [Compound 258, hexyl ((E)-amino(5-((R)-1-((2S,4R)-1-((9,9-difluoro-9H-fluorene-3-carbonyl)glycyl)-4-(difluoromethoxy)pyrrolidine-2-carboxamido)ethyl)thiophen-3-yl)methylene)carbamate] | < 100
12 | COc1cccc(F)c1-c1ccc(C(=O)NCC(=O)N2CC3(C[C@H]2C(=O)NCc2cc(C(=N)N)cs2)OCCO3)cc1 [Compound 241, (S)—N-((4-carbamimidoylthiophen-2-yl)methyl)-7-((2′-fluoro-6′-methoxy-[1,1′-biphenyl]-4-carbonyl)glycyl)-1,4-dioxa-7-azaspiro[4.4]nonane-8-carboxamide] | < 100
13 | N=C(N)c1csc(CNC(=O)[C@@H]2CC3(CN2C(=O)CNC(=O)c2ccc(-c4ccc(F)cc4)o2)OCCO3)c1 [Compound 299, (S)—N-((4-carbamimidoylthiophen-2-yl)methyl)-7-((5-(4-fluorophenyl)furan-2-carbonyl)glycyl)-1,4-dioxa-7-azaspiro[4.4]nonane-8-carboxamide] | < 100
14 | N=C(N)c1csc([C@@H](CO)NC(=O)[C@@H]2C[C@@H](OC(F)F)CN2C(=O)CNC(=O)c2ccc3c(c2)C(F)(F)c2ccccc2-3)c1 [Compound 396, (2S,4R)—N—((R)-1-(4-carbamimidoylthiophen-2-yl)-2-hydroxyethyl)-1-((9,9-difluoro-9H-fluorene-2-carbonyl)glycyl)-4-(difluoromethoxy) pyrrolidine-2-carboxamide] | < 100
15 | Cc1c2ccccc2cc2cc(C(=O)NCC(=O)N3CC4(C[C@H]3C(=O)N[C@H](C)c3cc(C(=N)N)cs3)OCCO4)ccc12 [Compound 325, (S)—N—((R)-1-(4-carbamimidoylthiophen-2-yl)ethyl)-7-((10-methylanthracene-2-carbonyl)glycyl)-1,4-dioxa-7-azaspiro[4.4]nonane-8-carboxamide] | < 100
16 | COC[C@@]1(F)C[C@@H](C(=O)N[C@H](C)c2cc(C(=N)N)cs2)N(C(=O)CNC(=O)c2ccc3oc4ccccc4c3c2)C1 [Compound 222, (2S,4R)—N—((R)-1-(4-carbamimidoylthiophen-2-yl)ethyl)-1-((dibenzo[b,d]furan-2-carbonyl)glycyl)-4-fluoro-4-(methoxymethyl)pyrrolidine-2-carboxamide] | < 100
17 | C[C@@H](NC(=O)[C@@H]1C[C@@H](S(C)(=O)=O)CN1C(=O)CNC(=O)c1ccc2c(c1)sc1ccccc12)c1cc(C(=N)N)cs1 [Compound 378, (2S,4R)—N—((R)-1-(4-carbamimidoylthiophen-2-yl)ethyl)-1-((dibenzo[b,d]thiophene-3-carbonyl)glycyl)-4-(methylsulfonyl)pyrrolidine-2-carboxamide] | < 100
18 | C[C@@H](NC(=O)[C@@H]1C[C@](F)(CF)CN1C(=O)CNC(=O)c1ccc2c(c1)C(C)(C)c1ccccc1-2)c1cc(C(=N)N)cs1 [Compound 368, (2S,4R)—N—((R)-1-(4-carbamimidoylthiophen-2-yl)ethyl)-1-((9,9-dimethyl-9H-fluorene-2-carbonyl)glycyl)-4-fluoro-4-(fluoromethyl)pyrrolidine-2-carboxamide] | < 100
19 | C[C@H](NC(=O)c1ccc(-c2ccc(F)cc2)cc1)C(=O)N1CC2(C[C@H]1C(=O)NCc1cc(C(=N)N)cs1)OCCO2 [Compound 296, (S)—N-((4-carbamimidoylthiophen-2-yl)methyl)-7-((4′-fluoro-[1,1′-biphenyl]-4-carbonyl)-L-alanyl)-1,4-dioxa-7-azaspiro[4.4]nonane-8-carboxamide] | < 100
20 | N=C(N)c1csc(CNC(=O)[C@@H]2CC3(CN2C(=O)CN2Cc4ccc(-c5ccc(F)cc5F)cc4C2)OCCO3)c1 [Compound 287, (S)—N-((4-carbamimidoylthiophen-2-yl)methyl)-7-(2-(5-(2,4-difluorophenyl)isoindolin-2-yl)acetyl)-1,4-dioxa-7-azaspiro[4.4]nonane-8-carboxamide] | < 100
21 | Cc1ccc(-c2cnc(C(=O)NCC(=O)N3CC4(C[C@H]3C(=O)N[C@H](C)c3cc(C(=N)N)cs3)OCCO4)c(F)c2)cc1 [Compound 388, (S)—N—((R)-1-(4-carbamimidoylthiophen-2-yl)ethyl)-7-((3-fluoro-5-(p-tolyl)picolinoyl)glycyl)-1,4-dioxa-7-azaspiro[4.4]nonane-8-carboxamide] | < 100
22 | C[C@@H](NC(=O)[C@@H]1C[C@@H](OC(F)F)CN1C(=O)CN1Cc2cc(-c3ccccc3)ccc2C1=O)c1cc(C(=N)N)cs1 [Compound 385, (2S,4R)—N—((R)-1-(4-carbamimidoylthiophen-2-yl)ethyl)-4-(difluoromethoxy)-1-(2-(1-oxo-5-phenylisoindolin-2-yl)acetyl)pyrrolidine-2-carboxamide] | < 100
23 | C[C@@H](NC(=O)[C@@H]1CC2(CN1C(=O)CN1Cc3ccc(-c4ccccc4)cc3C1=O)OCCO2)c1cc(C(=N)N)cs1 [Compound 386, (S)—N—((R)-1-(4-carbamimidoylthiophen-2-yl)ethyl)-7-(2-(1-oxo-6-phenylisoindolin-2-yl)acetyl)-1,4-dioxa-7-azaspiro[4.4]nonane-8-carboxamide] | < 100
24 | COC[C@@]1(F)C[C@@H](C(=O)N[C@H](C)c2cc(C(=N)N)cs2)N(C(=O)CNC(=O)c2ccc3c(c2)C(C)(C)c2ccccc2-3)C1 [Compound 344, (2S,4R)—N—((R)-1-(4-carbamimidoylthiophen-2-yl)ethyl)-1-((9,9-dimethyl-9H-fluorene-2-carbonyl)glycyl)-4-fluoro-4-(methoxymethyl) pyrrolidine-2-carboxamide] | < 100
